From patent US4235904A, “4-Aryl-5-piperazinoalkyl-1,3-dioxol-2-ones, and compositions” (Instituto Luso Farmaco d'Italia S.p.A., priority 1978, dated 1980)
Where a name gives a salt, the structure may show the parent alone.

What was measured:
plasmatic cholesterol = experiment: Hypocholesterolemic activity: determination of plasmatic cholesterol in rats treated orally; assay type: in vivo; details: Rattus norvegicus, po, 96 h, os, five treatments in 4 days, dose which reduces by 30% the content of plasmatic cholesterol, Table 1, read-out: Hypocholesterolemic activity, DE30 (rats)
Description: It has been evaluated orally in rats treated five times in 4 days (once daily during the first three days, twice daily on the fourth day) with the drugs under study. The animals, kept on an empty stomach, were killed on the fifth day, 18 hours after the last treatment. The following tests were carried out: The technique described by J. P. Blomhoff (Clin.Chim.Acta, 43,247, 1973) for the gas-chromatographic determination of total cholesterol was followed. 0,5 ml of the animal serum are hydrolysed at 50° C. for 1 hour with 5 ml of 2% alcoholic KOH. Cholesterol is extracted with 2% petroleum ether at 60°-80° C. and the gas-chromatographic analysis is carried out on the extract with cholesterol acetate as internal standard. The plasmatic cholesterol concentration of the treated animals is evaluated by comparing it with that of the controls. The calculated ED30 represents the dose which reduces by 30% the content of plasmatic cholesterol.

[1] = Acute toxicity, DL50 (mice), ip; details: for LD50: mouse, in vivo
plasmatic triglycerides = experiment: Hypotriglyceremic activity: determination of plasmatic triglycerides in rats treated orally; assay type: in vivo; details: Rattus norvegicus, po, 96 h, os, five treatments in 4 days, dose which reduces by 30% the content of plasmatic triglycerides, Table 2, read-out: Hypotriglyceremic activity DE30 (rats)
Description: It has been evaluated orally in rats treated five times in 4 days (once daily during the first three days, twice daily on the fourth day) with the drugs under study. The animals, kept on an empty stomach, were killed on the fifth day, 18 hours after the last treatment. The following tests were carried out: The technique of […].,44, 267, 1966) is used; it consists in determining, by enzymatic route, the total glycerol made free by hydrolysis of the seric neutral fats. In particular, the "Biochemia Test Combination" (Boehringer Mannheim GMBH) was used. In this case, too, the seric concentration of triglycerides in the treated animals was compared with that in the controls. The calculated ED30 represents the dose which reduces by 30% the content of plasmatic triglycerides.

[2] = Antiulcer activity in the rat (immobilization, method of Rossi et al.); assay type: in vivo; details: po, rats, os, 30 minutes before 4 hours immobilization, dose which protects 30% of the animals from ulcers, Table 3, read-out: Antiulcer activity DE30 (rats)
Description: (b) Antiulcer activity in the rat The method described by Rossi et al. (Comp.Rend.Soc.Biol., 150, 2124, 1956) was followed: 30 minutes after the oral treatment with the drugs under study, the animals, kept on an empty stomach for 48 hours, were immobilized for a period of 4 hours. At the end of this time, the presence of ulcers is checked after killing the animals by ether. The calculated ED30 represents the dose which protects 30% of the animals from ulcers.

SMILES | ED30 (plasmatic cholesterol) [mg/kg] | Acute toxicity DL50 (mice) ([1]; Table 2) [mg/kg] | LD50 [1] [mg/kg] | ED30 (plasmatic triglycerides) [mg/kg] | ED30 [2] [mg/kg] | Acute toxicity DL50 (mice) ([1]; Table 3) [mg/kg] | Acute toxicity DL50 (mice) ([1]; Table 1) [mg/kg]
Cl.O=c1oc(CCCN2CCN(c3ccccc3)CC2)c(-c2ccc(F)cc2)o1 [Compound 20, 4-(4-fluorophenyl)-5-[3-(4-phenyl-1-piperazinyl)propyl]-1,3-dioxol-2-one hydrochloride] | 30 | > 500 | > 500 | 15 | – | – | –
COc1ccccc1N1CCN(CCc2oc(=O)oc2-c2ccc(F)cc2)CC1.Cl.Cl [Compound 5, 4-(4-fluorophenyl)-5-[2-(4-(2-methoxyphenyl)-1-piperazinyl)ethyl]-1,3-dioxol-2-one dihydrochloride] | – | – | 350 | – | 30 | – | –
Cl.Cl.O=c1oc(CCN2CCN(c3ccccc3)CC2)c(-c2ccc(F)cc2)o1 [Compound 1, 4-(4-fluorophenyl)-5-[2-(4-phenyl-1-piperazinyl)ethyl]-1,3-dioxol-2-one dihydrochloride] | 10 | – | 420 | 50 | 10 | – | –
Cl.Cl.O=c1oc(CCN2CCN(c3ccccn3)CC2)c(-c2ccc(F)cc2)o1 [Compound 3, 4-(4-fluorophenyl)-5-[2-(4-(2-pyridyl)-1-piperazinyl)ethyl]-1,3-dioxol-2-one dihydrochloride] | 25 | – | 350 | – | – | – | –
O=c1oc(CCN2CCOCC2)c(-c2ccc(F)cc2)o1 [Compound 8, 4-(4-fluorophenyl)-5-[2-(1-morpholinyl)ethyl]-1,3-dioxol-2-one hydrochloride] | – | – | > 1000 | – | 30 | – | –
Cl.O=c1oc(CCN2CCN(c3ccc(Cl)c(Cl)c3)CC2)c(-c2ccc(F)cc2)o1 [Compound 13, 4-(4-fluorophenyl)-5-[2-(4-(3,4-dichlorophenyl)-1-piperazinyl)ethyl]-1,3-dioxol-2-one hydrochloride] | – | 600 | – | 25 | 100 | 600 | –
Cl.Cl.O=c1oc(CCN2CCN(C(c3ccccc3)c3ccc(Cl)cc3)CC2)c(-c2ccc(Cl)cc2)o1 (stereo not shown) [Compound 18, 4-(4-chlorophenyl)-5-[2-(4-(4-chlorobenzhydryl)-1-piperazinyl)ethyl]-1,3-dioxol-2-one dihydrochloride] | – | – | > 1000 | 20 | – | – | –
CN(CCc1ccccc1)CCc1oc(=O)oc1-c1ccc(F)cc1.Cl [Compound 2, 4-(4-fluorophenyl)-5-[2-(N-methyl-N-2-phenylethylamino)ethyl]-1,3-dioxol-2-one hydrochloride] | – | – | 175 | – | 15 | – | –
O=c1oc(CCN2CCN(c3ccc(Cl)cc3)CC2)c(-c2ccc(Cl)cc2)o1 [Compound 21, 4-(4-chlorophenyl)-5-[2-(4-chlorophenyl)-1-piperazinyl)ethyl]-1,3-dioxol-2-one hydrochloride] | – | – | > 1000 | 100 | – | – | –
CSc1ccc(-c2oc(=O)oc2CCN2CCN(c3ccccc3)CC2)cc1.Cl.Cl [Compound 16, 4-(4-methylthiophenyl)-5-[2-(4-phenyl-1-piperazinyl)ethyl]-1,3-dioxol-2-one dihydrochloride] | – | – | > 1000 | 100 | – | – | –
COc1ccc(-c2oc(=O)oc2CCN2CCN(c3ccccc3)CC2)cc1.Cl.Cl [Compound 15, 4-(4-methoxyphenyl)-5-[2-(4-phenyl-1-piperazinyl)ethyl]-1,3-dioxol-2-one dihydrochloride] | – | – | > 1000 | 20 | – | – | –
Cl.O=c1oc(CCN2CCN(c3cc(Cl)cc(Cl)c3)CC2)c(-c2ccc(F)cc2)o1 [Compound 10, 4-(4-fluorophenyl)-5-[2-(4-(3,5-dichlorophenyl)-1-piperazinyl)ethyl]-1,3-dioxol-2-one hydrochloride] | – | > 1000 | > 1000 | 100 | 50 | – | –
Cl.Cl.O=c1oc(CCN2CCN(c3ccccc3)CC2)c(-c2ccc(Cl)cc2)o1 [Compound 7, 4-(4-chlorophenyl)-5-[2-(4-phenyl-1-piperazinyl)ethyl]-1,3-dioxol-2-one dihydrochloride] | 6 | – | 650 | 30 | 80 | – | –
O=c1oc(CCN2CCN(c3ccccc3)CC2)c(-c2ccc3ccccc3c2)o1 [Compound 14, 4-(2-naphtyl)-5-[2-(4-phenyl-1-piperazinyl)ethyl]-1,3-dioxol-2-one hydrochloride] | 20 | – | 830 | 100 | – | – | –
Cl.O=c1oc(CCN2CCC3(CCCCC3)CC2)c(-c2ccc(F)cc2)o1 [Compound 17, 4-(4-fluorophenyl)-5-[2-(3-azaspiro[5,5]undecan-3-yl)ethyl]-1,3-dioxol-2-one hydrochloride] | – | – | 190 | 30 | – | – | –
Cl.O=c1oc(CCN2CCN(c3cc(Cl)ccc3Cl)CC2)c(-c2ccc(F)cc2)o1 [Compound 12, 4-(4-fluorophenyl)-5-[2-(4-(2,5-dichlorophenyl)-1-piperazinyl)ethyl]-1,3-dioxol-2-one hydrochloride] | – | 1000 | – | 30 | – | – | –
Cl.O=c1oc(CCN2CCN(C(c3ccccc3)c3ccccc3)CC2)c(-c2ccc(Cl)cc2)o1 [Compound 23, 4-(4-chlorophenyl)-5-[2-(4-benzhydryl-1-piperazinyl)ethyl]-1,3-dioxol-2-one hydrochloride] | – | – | > 1000 | 100 | – | – | –
CC1CN(CCc2oc(=O)oc2-c2ccc(F)cc2)CCN1c1ccc(Cl)cc1.Cl.Cl (stereo not shown) [Compound 11, 4-(4-fluorophenyl)-5-[2-(4-(4-chlorophenyl)-3-methyl-1-piperazinyl)ethyl]-1,3-dioxol-2-one dihydrochloride] | – | – | 1000 | 30 | 100 | – | –
O=C(O)/C=C\C(=O)O.O=c1oc(CCN2CCN(c3ncccn3)CC2)c(-c2ccc(Cl)cc2)o1 [Compound 19, 4-(4-chlorophenyl)-5-[2-(4-(2-pyrimidinyl)-1-piperazinyl)ethyl]-1,3-dioxol-2-one maleate] | 30 | – | 375 | – | – | – | –
CN1CCN(CCc2oc(=O)oc2-c2ccc(F)cc2)CC1.Cl.Cl [Compound 4, 4-(4-fluorophenyl)-5-[2-(4-methyl-1-piperazinyl)ethyl]-1,3-dioxol-2-one dihydrochloride] | – | – | 300 | – | 20 | – | –
Cc1ccc(-c2oc(=O)oc2CCN2CCN(c3ccccc3)CC2)cc1.Cl [Compound 9, 4-(4-tolyl)-5-[2-(4-phenyl-1-piperazinyl)ethyl]-1,3-dioxol-2-one hydrochloride] | 15 | > 1000 | > 1000 | 100 | 10 | – | > 1000
Cl.Cl.O=c1oc(CCN2CCN(c3ccccc3)CC2)c(-c2ccccc2)o1 [Compound 6, 4-phenyl-5-[2-(4-phenyl-1-piperazinyl)ethyl]-1,3-dioxol-2-one dihydrochloride] | 20 | – | 500 | 30 | 20 | – | –
O=c1oc(CCN2CCC(c3ccccc3)CC2)c(-c2ccc(Cl)cc2)o1 [Compound 22, 4-(4-chlorophenyl)-5-[2-(4-phenyl)-1-piperidinyl)ethyl]-1,3-dioxol-2-one hydrochloride] | – | – | 750 | 50 | – | – | –
